Results from ChEMBL document CHEMBL3885881, “DrugMatrix”.

Species on record: Rattus norvegicus
Assay: DrugMatrix - Regimen: Daily Repeat
Format: toxicity, organism-based, Sprague-Dawley
Parameters: regimen Daily Repeat, gender Male, age 6-8 weeks
Conditions: in vivo, po, route oral GAVAGE, […]; for ABSOLUTE BASOPHIL / ABSOLUTE EOSINOPHIL / ABSOLUTE LYMPHOCYTE / ABSOLUTE MONOCYTE / ABSOLUTE SEGMENTED NEUTROPHIL / BASOPHIL / EOSINOPHIL / ERYTHROCYTE COUNT / HEMATOCRIT / HEMOGLOBIN / LEUKOCYTE COUNT / LYMPHOCYTE / MEAN CORPUSCULAR HEMOGLOBIN / MEAN CORPUSCULAR HEMOGLOBIN CONCENTRATION / MEAN CORPUSCULAR VOLUME / MONOCYTE / NEUTROPHIL / NUCLEATED RED BLOOD CELLS / PLATELET COUNT: tissue Blood; for ALANINE AMINOTRANSFERASE / ALBUMIN / ALKALINE PHOSPHATASE / ASPARTATE AMINOTRANSFERASE / BLOOD UREA NITROGEN / CARBON DIOXIDE / CHLORIDE / CHOLESTEROL / CREATINE PHOSPHOKINASE / CREATININE / GLUCOSE / LACTATE DEHYDROGENASE / LIPASE / PHOSPHORUS / POTASSIUM / SODIUM / TOTAL BILIRUBIN / TOTAL PROTEIN / URIC ACID: tissue Plasma
[1] = 10 mg/kg, 72 h, dose level Low, time 3 day
[2] = 10 mg/kg, 120 h, dose level Low, time 5 day
[3] = 75 mg/kg, 72 h, dose level High, time 3 day
[4] = 75 mg/kg, 120 h, dose level High, time 5 day

## NC(=O)N1C(=O)/C(=C(\O)c2cccs2)c2cc(Cl)ccc21 [TENIDAP]
[1]
  ABSOLUTE BASOPHIL: 0 CELLS/uL
  ABSOLUTE EOSINOPHIL: 204 CELLS/uL
  ABSOLUTE LYMPHOCYTE: 13523 CELLS/uL
  ABSOLUTE MONOCYTE: 155.33 CELLS/uL
  ABSOLUTE SEGMENTED NEUTROPHIL: 1651 CELLS/uL
  BASOPHIL: 0%
  EOSINOPHIL: 1.33%
  ERYTHROCYTE COUNT: 5.32 x10E6/uL
  HEMATOCRIT: 33.53%
  HEMOGLOBIN: 13.33 G/DL
  LEUKOCYTE COUNT: 15.53 x10E3/uL
  LYMPHOCYTE: 86.67%
  MEAN CORPUSCULAR HEMOGLOBIN: 25.03 pg
  MEAN CORPUSCULAR HEMOGLOBIN CONCENTRATION: 39.73 G/DL
  MEAN CORPUSCULAR VOLUME: 62.97 fL
  MONOCYTE: 1%
  NEUTROPHIL: 11%
  NUCLEATED RED BLOOD CELLS: 0 /100WBC
  PLATELET COUNT: 1066.67 x10E3/uL
  ALANINE AMINOTRANSFERASE: 83.33 u/L
  ALBUMIN: 3.87 G/DL
  ALKALINE PHOSPHATASE: 429.33 u/L
  ASPARTATE AMINOTRANSFERASE: 109.67 u/L
  BLOOD UREA NITROGEN: 11 mg/dL
  CARBON DIOXIDE: 23.67 mmol/L
  CHLORIDE: 102.67 MEQ/L
  CHOLESTEROL: 63.67 mg/dL
  CREATINE PHOSPHOKINASE: 779.67 u/L
  CREATININE: 0.2 mg/dL
  GLUCOSE: 169 mg/dL
  LACTATE DEHYDROGENASE: 223.67 u/L
  LIPASE: 12 u/L
  PHOSPHORUS: 11.47 mg/dL
  POTASSIUM: 5.98 MEQ/L
  SODIUM: 143.97 MEQ/L
  TOTAL BILIRUBIN: 0.17 mg/dL
  TOTAL PROTEIN: 5.27 G/DL
  URIC ACID: 1.43 mg/dL
[2]
  ABSOLUTE BASOPHIL: 0 CELLS/uL
  ABSOLUTE EOSINOPHIL: 83.67 CELLS/uL
  ABSOLUTE LYMPHOCYTE: 10624.67 CELLS/uL
  ABSOLUTE MONOCYTE: 83.67 CELLS/uL
  ABSOLUTE SEGMENTED NEUTROPHIL: 1674.67 CELLS/uL
  BASOPHIL: 0%
  EOSINOPHIL: 0.67%
  ERYTHROCYTE COUNT: 5.4 x10E6/uL
  HEMATOCRIT: 33.6%
  HEMOGLOBIN: 13.33 G/DL
  LEUKOCYTE COUNT: 12.47 x10E3/uL
  LYMPHOCYTE: 85.33%
  MEAN CORPUSCULAR HEMOGLOBIN: 24.7 pg
  MEAN CORPUSCULAR HEMOGLOBIN CONCENTRATION: 39.67 G/DL
  MEAN CORPUSCULAR VOLUME: 62.27 fL
  MONOCYTE: 0.67%
  NEUTROPHIL: 13.33%
  NUCLEATED RED BLOOD CELLS: 0 /100WBC
  PLATELET COUNT: 1241 x10E3/uL
  ALANINE AMINOTRANSFERASE: 56.33 u/L
  ALBUMIN: 4.13 G/DL
  ALKALINE PHOSPHATASE: 448.67 u/L
  ASPARTATE AMINOTRANSFERASE: 103.33 u/L
  BLOOD UREA NITROGEN: 13 mg/dL
  CARBON DIOXIDE: 33.67 mmol/L
  CHLORIDE: 100.33 MEQ/L
  CHOLESTEROL: 58.33 mg/dL
  CREATINE PHOSPHOKINASE: 442.67 u/L
  CREATININE: 0.21 mg/dL
  GLUCOSE: 155 mg/dL
  LACTATE DEHYDROGENASE: 736.33 u/L
  LIPASE: 11 u/L
  PHOSPHORUS: 11.1 mg/dL
  POTASSIUM: 6.31 MEQ/L
  SODIUM: 144.37 MEQ/L
  TOTAL BILIRUBIN: 0.17 mg/dL
  TOTAL PROTEIN: 5.93 G/DL
  URIC ACID: 1.33 mg/dL
[3]
  ABSOLUTE BASOPHIL: 0 CELLS/uL
  ABSOLUTE EOSINOPHIL: 72 CELLS/uL
  ABSOLUTE LYMPHOCYTE: 18447.67 CELLS/uL
  ABSOLUTE MONOCYTE: 586.33 CELLS/uL
  ABSOLUTE SEGMENTED NEUTROPHIL: 3327.33 CELLS/uL
  BASOPHIL: 0%
  EOSINOPHIL: 0.33%
  ERYTHROCYTE COUNT: 5.15 x10E6/uL
  HEMATOCRIT: 32.13%
  HEMOGLOBIN: 13.03 G/DL
  LEUKOCYTE COUNT: 22.43 x10E3/uL
  LYMPHOCYTE: 82%
  MEAN CORPUSCULAR HEMOGLOBIN: 25.3 pg
  MEAN CORPUSCULAR HEMOGLOBIN CONCENTRATION: 40.63 G/DL
  MEAN CORPUSCULAR VOLUME: 62.33 fL
  MONOCYTE: 2.67%
  NEUTROPHIL: 15%
  NUCLEATED RED BLOOD CELLS: 0 /100WBC
  PLATELET COUNT: 1275.33 x10E3/uL
  ALANINE AMINOTRANSFERASE: 41.67 u/L
  ALBUMIN: 3.37 G/DL
  ALKALINE PHOSPHATASE: 301 u/L
  ASPARTATE AMINOTRANSFERASE: 107.33 u/L
  BLOOD UREA NITROGEN: 11.33 mg/dL
  CARBON DIOXIDE: 22.33 mmol/L
  CHLORIDE: 100.33 MEQ/L
  CHOLESTEROL: 64.67 mg/dL
  CREATINE PHOSPHOKINASE: 1284.33 u/L
  CREATININE: 0.21 mg/dL
  GLUCOSE: 168.67 mg/dL
  LACTATE DEHYDROGENASE: 492.67 u/L
  LIPASE: 10 u/L
  PHOSPHORUS: 11.63 mg/dL
  POTASSIUM: 6.52 MEQ/L
  SODIUM: 144.2 MEQ/L
  TOTAL BILIRUBIN: 0.13 mg/dL
  TOTAL PROTEIN: 5.17 G/DL
  URIC ACID: 2.97 mg/dL
[4]
  ABSOLUTE BASOPHIL: 0 CELLS/uL
  ABSOLUTE EOSINOPHIL: 26.67 CELLS/uL
  ABSOLUTE LYMPHOCYTE: 9823.33 CELLS/uL
  ABSOLUTE MONOCYTE: 49.33 CELLS/uL
  ABSOLUTE SEGMENTED NEUTROPHIL: 1634 CELLS/uL
  BASOPHIL: 0%
  EOSINOPHIL: 0.33%
  ERYTHROCYTE COUNT: 4.78 x10E6/uL
  HEMATOCRIT: 30.53%
  HEMOGLOBIN: 12.13 G/DL
  LEUKOCYTE COUNT: 11.53 x10E3/uL
  LYMPHOCYTE: 87.67%
  MEAN CORPUSCULAR HEMOGLOBIN: 25.37 pg
  MEAN CORPUSCULAR HEMOGLOBIN CONCENTRATION: 39.73 G/DL
  MEAN CORPUSCULAR VOLUME: 63.83 fL
  MONOCYTE: 0.67%
  NEUTROPHIL: 11.33%
  NUCLEATED RED BLOOD CELLS: 0.33 /100WBC
  PLATELET COUNT: 1185.67 x10E3/uL
  ALANINE AMINOTRANSFERASE: 35.67 u/L
  ALBUMIN: 3.53 G/DL
  ALKALINE PHOSPHATASE: 211 u/L
  ASPARTATE AMINOTRANSFERASE: 95 u/L
  BLOOD UREA NITROGEN: 13.67 mg/dL
  CARBON DIOXIDE: 33 mmol/L
  CHLORIDE: 103.33 MEQ/L
  CHOLESTEROL: 68 mg/dL
  CREATINE PHOSPHOKINASE: 655 u/L
  CREATININE: 0.26 mg/dL
  GLUCOSE: 158 mg/dL
  LACTATE DEHYDROGENASE: 243 u/L
  LIPASE: 11 u/L
  PHOSPHORUS: 9.87 mg/dL
  POTASSIUM: 4.94 MEQ/L
  SODIUM: 147 MEQ/L
  TOTAL BILIRUBIN: 0.2 mg/dL
  TOTAL PROTEIN: 5.43 G/DL
  URIC ACID: 1.03 mg/dL
